What was measured:
Assay in all cases: KINOMEscan
Assay type in all cases: binding
Conditions in all cases: 1 μM of compound 4; read-out: POC
CSNK1E = CSNK1E (Homo sapiens, UniProt P49674)
ZAP70 = molecular target: T1, ZAP70 (Homo sapiens, UniProt P43403)
T1 construct: purchased Eurofins DiscoverX

ACVR2A = ACVR2A (Homo sapiens, UniProt P27037)
PIK3CA = PIK3CA (Homo sapiens, UniProt P42336)
MYO3A = MYO3A (Homo sapiens, UniProt Q8NEV4)
EGFR(G719S) = molecular target: T2, EGFR(G719S) (Homo sapiens, UniProt P00533, G719S)
T2 construct: purchased Eurofins DiscoverX (KINOMEscan service)

ABL1-phosphorylated = molecular target: T3, ABL1-phosphorylated (Homo sapiens, UniProt P00519)
T3 construct: purchased Eurofins DiscoverX Corporation

MET = MET (Homo sapiens, UniProt P08581)
MAP4K3 = MAP4K3 (Homo sapiens, UniProt Q8IVH8)
MKNK2 = MKNK2 (Homo sapiens, UniProt Q9HBH9)
MAST1 = MAST1 (Homo sapiens, UniProt Q9Y2H9)
ERBB4 = molecular target: T4, ERBB4 (Homo sapiens, UniProt Q15303)
T4 construct: purchased Eurofins DiscoverX Corporation

KIT(V559D) = KIT(V559D) (Homo sapiens, UniProt P10721, V559D)
ALK(C1156Y) = ALK(C1156Y) (Homo sapiens, UniProt Q9UM73, C1156Y)
IKK-beta = IKK-beta (Homo sapiens, UniProt O14920)
CASK = CASK (Homo sapiens, UniProt O14936)
FLT3-autoinhibited = molecular target: T5, FLT3-autoinhibited (Homo sapiens, UniProt P36888)
T5 construct: purchased Eurofins DiscoverX Corporation

AMPK-alpha2 = AMPK-alpha2 (Homo sapiens, UniProt P54646)
MARK4 = MARK4 (Homo sapiens, UniProt Q96L34)
ABL1-nonphosphorylated = molecular target: T6, ABL1-nonphosphorylated (Homo sapiens, UniProt P00519)
T6 construct: purchased Eurofins DiscoverX Corporation

FGFR2 = molecular target: T7, FGFR2 (Homo sapiens, UniProt P21802)
T7 construct: purchased Eurofins DiscoverX Corporation

[1] = molecular target: T8, RSK1(Kin.Dom.1-N-terminal) (Homo sapiens, UniProt Q15418)
T8 construct: RSK1(Kin.Dom.1-N-terminal); purchased Eurofins DiscoverX Corporation (KINOMEscan screening service)

PRKG2 = PRKG2 (Homo sapiens, UniProt Q13237)
MLK2 = MLK2 (Homo sapiens, UniProt Q02779)
QSK = molecular target: T9, QSK (Homo sapiens, UniProt Q9Y2K2)
T9 construct: purchased Eurofins DiscoverX Corporation (KINOMEscan screening service)

CLK3 = CLK3 (Homo sapiens, UniProt P49761)
[2] = molecular target: T10, RSK3(Kin.Dom.1-N-terminal) (Homo sapiens, UniProt Q15349)
T10 construct: RSK3(Kin.Dom.1-N-terminal); purchased Eurofins DiscoverX (KINOMEscan service)

YANK3 = molecular target: T11, YANK3 (Homo sapiens, UniProt Q86UX6)
T11 construct: purchased Eurofins DiscoverX

FLT3(K663Q) = molecular target: T12, FLT3(K663Q) (Homo sapiens, UniProt P36888, K663Q)
T12 construct: purchased Eurofins DiscoverX Corporation

TGFBR2 = molecular target: T13, TGFBR2 (Homo sapiens, UniProt P37173)
T13 construct: purchased Eurofins DiscoverX Corporation

KIT(A829P) = KIT(A829P) (Homo sapiens, UniProt P10721, A829P)
TSSK1B = molecular target: T14, TSSK1B (Homo sapiens, UniProt Q9BXA7)
T14 construct: purchased Eurofins DiscoverX Corporation

TAOK2 = molecular target: T15, TAOK2 (Homo sapiens, UniProt Q9UL54)
T15 construct: purchased Eurofins DiscoverX Corporation

EIF2AK1 = molecular target: T16, EIF2AK1 (Homo sapiens, UniProt Q9BQI3)
T16 construct: purchased Eurofins DiscoverX (KINOMEscan service)

ANKK1 = ANKK1 (Homo sapiens, UniProt Q8NFD2)
EPHB2 = molecular target: T17, EPHB2 (Homo sapiens, UniProt P29323)
T17 construct: purchased Eurofins DiscoverX (KINOMEscan service)

[3] = molecular target: T18, ABL1(F317I)-phosphorylated (Homo sapiens, UniProt P00519, F317I)
T18 construct: purchased Eurofins DiscoverX Corporation
T18 sequence (P00519 whole entry F317I): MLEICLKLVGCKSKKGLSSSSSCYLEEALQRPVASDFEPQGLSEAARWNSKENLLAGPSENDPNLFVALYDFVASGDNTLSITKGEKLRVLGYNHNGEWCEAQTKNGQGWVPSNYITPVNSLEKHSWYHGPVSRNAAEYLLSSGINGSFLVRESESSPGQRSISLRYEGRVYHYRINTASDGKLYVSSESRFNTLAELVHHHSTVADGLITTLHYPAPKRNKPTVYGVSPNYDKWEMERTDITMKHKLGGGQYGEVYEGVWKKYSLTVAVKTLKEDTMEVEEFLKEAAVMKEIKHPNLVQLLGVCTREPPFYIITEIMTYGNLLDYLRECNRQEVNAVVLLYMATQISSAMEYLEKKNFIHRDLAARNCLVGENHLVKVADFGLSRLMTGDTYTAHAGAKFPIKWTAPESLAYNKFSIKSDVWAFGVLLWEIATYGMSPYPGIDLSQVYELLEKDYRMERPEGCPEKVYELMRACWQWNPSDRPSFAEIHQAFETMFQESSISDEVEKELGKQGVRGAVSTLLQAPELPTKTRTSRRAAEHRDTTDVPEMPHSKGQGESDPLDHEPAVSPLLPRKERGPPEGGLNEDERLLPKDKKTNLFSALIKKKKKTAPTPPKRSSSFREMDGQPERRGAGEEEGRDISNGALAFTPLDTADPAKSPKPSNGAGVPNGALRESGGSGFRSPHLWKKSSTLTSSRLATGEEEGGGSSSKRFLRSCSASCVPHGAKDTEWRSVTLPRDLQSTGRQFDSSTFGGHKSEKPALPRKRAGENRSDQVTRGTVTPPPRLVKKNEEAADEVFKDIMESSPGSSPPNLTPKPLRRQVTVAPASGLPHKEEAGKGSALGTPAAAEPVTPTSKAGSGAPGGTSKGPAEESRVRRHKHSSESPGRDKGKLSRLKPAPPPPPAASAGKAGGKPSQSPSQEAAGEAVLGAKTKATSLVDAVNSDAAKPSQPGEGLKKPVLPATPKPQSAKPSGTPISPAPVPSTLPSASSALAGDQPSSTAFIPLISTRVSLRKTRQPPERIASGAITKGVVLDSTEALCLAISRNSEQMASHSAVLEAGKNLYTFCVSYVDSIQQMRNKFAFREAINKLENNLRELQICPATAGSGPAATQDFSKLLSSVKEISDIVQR

Chain of AMPK-alpha2 (P54646 whole entry): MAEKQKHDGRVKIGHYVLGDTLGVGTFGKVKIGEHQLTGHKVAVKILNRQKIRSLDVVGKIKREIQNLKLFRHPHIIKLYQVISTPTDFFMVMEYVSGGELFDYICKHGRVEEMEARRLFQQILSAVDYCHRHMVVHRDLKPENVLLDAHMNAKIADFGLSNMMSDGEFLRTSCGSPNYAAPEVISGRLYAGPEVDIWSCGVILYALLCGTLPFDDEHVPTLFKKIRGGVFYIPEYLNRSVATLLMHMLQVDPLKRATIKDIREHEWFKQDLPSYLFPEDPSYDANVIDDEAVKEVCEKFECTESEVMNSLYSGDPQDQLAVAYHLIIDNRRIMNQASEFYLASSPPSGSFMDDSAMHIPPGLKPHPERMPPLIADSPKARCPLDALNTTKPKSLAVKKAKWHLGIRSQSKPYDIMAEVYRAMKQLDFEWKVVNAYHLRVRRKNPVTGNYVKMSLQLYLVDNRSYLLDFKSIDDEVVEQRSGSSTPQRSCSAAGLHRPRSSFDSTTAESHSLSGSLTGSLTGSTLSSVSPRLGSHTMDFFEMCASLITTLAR
Chain of MET (P08581 25-1390): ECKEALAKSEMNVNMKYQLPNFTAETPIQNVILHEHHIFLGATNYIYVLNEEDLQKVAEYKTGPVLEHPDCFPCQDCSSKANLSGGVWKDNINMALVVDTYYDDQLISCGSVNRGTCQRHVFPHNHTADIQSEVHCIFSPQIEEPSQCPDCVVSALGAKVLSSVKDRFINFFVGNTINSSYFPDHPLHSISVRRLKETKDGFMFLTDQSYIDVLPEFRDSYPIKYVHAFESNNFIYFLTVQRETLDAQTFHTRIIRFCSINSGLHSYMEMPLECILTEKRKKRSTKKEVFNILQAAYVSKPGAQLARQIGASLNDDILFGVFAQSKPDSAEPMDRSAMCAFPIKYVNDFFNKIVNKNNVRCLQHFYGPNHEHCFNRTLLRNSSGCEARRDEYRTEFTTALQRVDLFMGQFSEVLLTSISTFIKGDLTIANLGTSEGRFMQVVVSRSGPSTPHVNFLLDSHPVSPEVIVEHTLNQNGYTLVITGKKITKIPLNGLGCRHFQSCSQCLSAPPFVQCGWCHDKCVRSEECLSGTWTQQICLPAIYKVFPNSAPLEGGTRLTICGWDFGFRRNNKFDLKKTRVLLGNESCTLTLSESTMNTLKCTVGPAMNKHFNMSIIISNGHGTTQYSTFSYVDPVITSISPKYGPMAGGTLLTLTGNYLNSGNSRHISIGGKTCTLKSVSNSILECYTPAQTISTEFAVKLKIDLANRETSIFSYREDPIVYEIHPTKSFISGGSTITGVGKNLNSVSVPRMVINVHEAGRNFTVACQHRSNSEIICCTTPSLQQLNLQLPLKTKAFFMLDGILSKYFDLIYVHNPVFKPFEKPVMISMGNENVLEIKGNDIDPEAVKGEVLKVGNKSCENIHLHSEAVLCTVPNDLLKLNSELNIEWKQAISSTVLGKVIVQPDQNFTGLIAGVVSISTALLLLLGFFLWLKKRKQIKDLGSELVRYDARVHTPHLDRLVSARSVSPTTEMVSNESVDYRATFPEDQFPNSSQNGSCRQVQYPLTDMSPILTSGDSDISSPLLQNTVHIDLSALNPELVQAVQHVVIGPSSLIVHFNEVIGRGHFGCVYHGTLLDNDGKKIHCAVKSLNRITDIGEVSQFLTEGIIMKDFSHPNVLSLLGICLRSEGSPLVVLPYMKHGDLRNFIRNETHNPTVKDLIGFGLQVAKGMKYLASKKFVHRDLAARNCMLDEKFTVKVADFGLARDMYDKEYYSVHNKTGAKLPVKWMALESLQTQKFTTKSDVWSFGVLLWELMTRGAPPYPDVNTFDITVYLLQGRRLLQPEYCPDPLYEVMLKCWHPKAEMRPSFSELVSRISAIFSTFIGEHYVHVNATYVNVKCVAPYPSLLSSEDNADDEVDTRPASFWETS
Chain of KIT(A829P) (P10721 26-976 A829P): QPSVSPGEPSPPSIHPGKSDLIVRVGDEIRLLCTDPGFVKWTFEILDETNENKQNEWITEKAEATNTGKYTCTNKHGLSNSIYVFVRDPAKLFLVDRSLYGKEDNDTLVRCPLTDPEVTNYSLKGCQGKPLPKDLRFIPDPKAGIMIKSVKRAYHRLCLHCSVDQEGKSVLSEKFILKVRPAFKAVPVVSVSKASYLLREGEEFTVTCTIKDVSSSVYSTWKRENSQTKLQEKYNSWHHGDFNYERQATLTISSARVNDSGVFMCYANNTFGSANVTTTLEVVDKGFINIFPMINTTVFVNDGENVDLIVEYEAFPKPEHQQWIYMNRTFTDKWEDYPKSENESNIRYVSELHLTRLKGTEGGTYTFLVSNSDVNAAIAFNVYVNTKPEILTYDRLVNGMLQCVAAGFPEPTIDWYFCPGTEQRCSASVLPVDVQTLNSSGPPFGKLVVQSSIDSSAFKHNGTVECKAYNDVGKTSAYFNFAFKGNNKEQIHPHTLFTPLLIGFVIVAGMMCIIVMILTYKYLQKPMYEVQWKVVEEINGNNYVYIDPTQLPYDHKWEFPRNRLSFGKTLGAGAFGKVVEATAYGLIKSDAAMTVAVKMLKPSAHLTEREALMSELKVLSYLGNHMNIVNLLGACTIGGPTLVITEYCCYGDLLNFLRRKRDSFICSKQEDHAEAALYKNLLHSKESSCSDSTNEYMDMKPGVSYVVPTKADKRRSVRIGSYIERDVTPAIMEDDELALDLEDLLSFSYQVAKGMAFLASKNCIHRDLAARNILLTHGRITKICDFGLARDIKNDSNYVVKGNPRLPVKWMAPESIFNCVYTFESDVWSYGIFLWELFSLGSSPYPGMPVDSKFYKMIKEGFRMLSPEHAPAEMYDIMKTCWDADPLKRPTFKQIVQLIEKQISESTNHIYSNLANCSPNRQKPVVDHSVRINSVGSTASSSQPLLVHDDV
Chain of KIT(V559D) (P10721 26-976 V559D): as the sequence (P10721 26-976 A829P) above, with V534D, P804A counted along it
Chain of IKK-beta (O14920 whole entry): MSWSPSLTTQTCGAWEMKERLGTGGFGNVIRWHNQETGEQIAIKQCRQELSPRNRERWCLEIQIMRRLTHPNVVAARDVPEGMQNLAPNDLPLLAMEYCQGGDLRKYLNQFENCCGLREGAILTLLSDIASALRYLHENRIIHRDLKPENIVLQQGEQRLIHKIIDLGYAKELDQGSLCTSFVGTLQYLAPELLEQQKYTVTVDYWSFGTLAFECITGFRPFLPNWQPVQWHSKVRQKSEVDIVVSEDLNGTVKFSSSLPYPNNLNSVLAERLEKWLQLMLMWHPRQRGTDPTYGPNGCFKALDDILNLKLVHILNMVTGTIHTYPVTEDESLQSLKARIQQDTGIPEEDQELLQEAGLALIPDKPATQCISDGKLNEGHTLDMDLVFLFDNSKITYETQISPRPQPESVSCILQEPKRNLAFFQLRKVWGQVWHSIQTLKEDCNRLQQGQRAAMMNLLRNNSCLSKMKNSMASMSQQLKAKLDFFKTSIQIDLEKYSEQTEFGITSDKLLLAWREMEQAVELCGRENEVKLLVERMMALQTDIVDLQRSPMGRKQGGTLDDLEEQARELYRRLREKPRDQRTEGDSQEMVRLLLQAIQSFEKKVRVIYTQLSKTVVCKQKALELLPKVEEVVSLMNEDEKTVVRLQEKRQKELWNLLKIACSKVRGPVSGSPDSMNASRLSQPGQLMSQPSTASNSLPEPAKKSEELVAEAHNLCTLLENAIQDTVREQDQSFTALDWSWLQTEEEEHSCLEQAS
T10 sequence (Q15349 59-318 limits assumed): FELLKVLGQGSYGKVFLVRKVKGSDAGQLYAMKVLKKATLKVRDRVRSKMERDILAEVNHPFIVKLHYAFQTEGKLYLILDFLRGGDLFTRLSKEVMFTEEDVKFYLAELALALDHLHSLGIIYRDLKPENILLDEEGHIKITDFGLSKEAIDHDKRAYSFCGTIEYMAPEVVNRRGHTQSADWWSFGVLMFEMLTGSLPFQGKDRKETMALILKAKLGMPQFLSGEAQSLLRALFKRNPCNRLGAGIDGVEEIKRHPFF

## C=CC(=O)Nc1ccc(OC)c(Nc2cc(-c3[nH]c(CC)nc3-c3cccc(NC(=O)c4cccc5c4NC(=O)c4ccccc4N5)c3)ccn2)c1 [Compound 4, N-(3-(5-(2-((5-Acrylamido-2-methoxyphenyl)amino)pyridin-4-yl)-2-ethyl-1H-imidazol-4-yl)phenyl)-11-oxo-10,11-dihydro-5H-dibenzo[b,e][1,4]diazepine-9-carboxamide]
CSNK1E
  remaining binding at 1 µM: 88%
ZAP70
  remaining binding at 1 µM: 97%
ACVR2A
  remaining binding at 1 µM: 77%
PIK3CA
  remaining binding at 1 µM: 70%
MYO3A
  remaining binding at 1 µM: 14%
EGFR(G719S)
  remaining binding at 1 µM: 13%
ABL1-phosphorylated
  remaining binding at 1 µM: 80%
MET
  remaining binding at 1 µM: 69%
MAP4K3
  remaining binding at 1 µM: 9.5%
MKNK2
  remaining binding at 1 µM: 100%
MAST1
  remaining binding at 1 µM: 100%
ERBB4
  remaining binding at 1 µM: 4.9%
KIT(V559D)
  remaining binding at 1 µM: 100%
ALK(C1156Y)
  remaining binding at 1 µM: 87%
IKK-beta
  remaining binding at 1 µM: 88%
CASK
  remaining binding at 1 µM: 97%
FLT3-autoinhibited
  remaining binding at 1 µM: 100%
AMPK-alpha2
  remaining binding at 1 µM: 56%
MARK4
  remaining binding at 1 µM: 92%
ABL1-nonphosphorylated
  remaining binding at 1 µM: 100%
FGFR2
  remaining binding at 1 µM: 100%
[1]
  remaining binding at 1 µM: 4.7%
PRKG2
  remaining binding at 1 µM: 62%
MLK2
  remaining binding at 1 µM: 97%
QSK
  remaining binding at 1 µM: 100%
CLK3
  remaining binding at 1 µM: 74%
[2]
  remaining binding at 1 µM: 97%
YANK3
  remaining binding at 1 µM: 96%
FLT3(K663Q)
  remaining binding at 1 µM: 87%
TGFBR2
  remaining binding at 1 µM: 75%
KIT(A829P)
  remaining binding at 1 µM: 56%
TSSK1B
  remaining binding at 1 µM: 95%
TAOK2
  remaining binding at 1 µM: 100%
EIF2AK1
  remaining binding at 1 µM: 75%
ANKK1
  remaining binding at 1 µM: 87%
EPHB2
  remaining binding at 1 µM: 100%
[3]
  remaining binding at 1 µM: 84%

Source: patent US20260224588A1, “BENZODIAZEPINONE-DERIVED INHIBITORS OF EGFR AND HER2” (The Research Foundation for the State University of New York, priority 2023, published 2026)
